The text below walks through data of patent publication US20100221769A1, “ELECTROPORATIVE FLOW CYTOMETRY” (priority 2007, published 2010).

Assay [1] has as its system MCF-7 cells. In words: EFC cell swelling during flow-through electroporation. Type of assay: cell-based, human. The procedure: Cell culture. MCF-7 and MCF-10A cell lines were obtained from American Type Culture Collection (ATCC, Manassas, Va.) and cultured according to recommended protocols. Briefly, MCF-10A cell line was cultured in DMEM F-12 supplemented with Horse Serum (5.6%), EGF (20 ng/ml), Insulin (10 μg/ml), antibiotics (1%) and Hydrocortisone (0.5 μg/ml). The MCF-7 cell line was cultured in DMEM supplemented with FBS (10%), Penicillin/streptomycin (1%) and L-glutamine (2 mM). The TPA treated MCF-7 cell line was generated by treating MCF-7 cells with 100 nM 12-O-tetradecanoylphorbol-13-acetate (TPA) for 18 hr before experiments. In order to detach cells from culture flasks, cells were treated with 0.1% Trypsin/EDTA, washed and resuspended using the electroporation buffer (10 mM Na2HPO4, […], and 250 mM sucrose). For the treatment of MCF-7 cells with colchicine, MCF-7 cells were incubated in the culture medium consisting of 10 μM colchicine (Sigma, St Louis, USA) for 30 min (Rots and Teissie, 1992, Biochim. Biophys. Acta 1111: 45-50). The cell suspension was then centrifuged and the supernatant was discarded. The cells were washed with the electroporation buffer and then resuspended in the electroporation buffer for testing. […]
Microchip operation and data collection/analysis. The microfluidic chip (shown in FIG. 10) was mounted on an IX-71 fluorescence microscope (Olympus, Melville, N.Y.) equipped with a 40× dry objective (NA=0.40) and an ORCA-285 CCD camera (Hamamatsu, Bridgewater, N.J.). […] However, because the cell size is monitored over time, the results should not be affected by the velocity, assuming mechanical effects such as shear stress can be ignored. […] In this case, the duration of electroporation was determined by the flow rate and the dimensions of the microfluidic channel. […]
For EFC tests, the images of cells were taken at a frame rate of 16 Hz. The cell size was monitored over time during electroporation by measuring the two-dimensional area (μm^2) of individual cells in time-sequenced images using ImageJ software from NIH. […]

Assay [2] deals with MCF-7 cells. In words: Cell viability (PI staining) after flow-through electroporation. Format: cell-based, human. As to conditions: 0 and 200 V/cm, 200 ms, 1 hr after electroporation.
Assay [3] deals with MCF-7 cells. To be noted: 100 nM for 18 hr (Johnson et al., 1999); cited from earlier work.

With `COc1cc2c(c(OC)c1OC)-c1ccc(OC)c(=O)cc1[C@@H](NC(C)=O)CC2` [colchicine], the “effect on cell deformability (swelling during electroporation vs control)” value in assay [1] (10 μM for 30 min) is “cell stiffening”.

Take `CCCCCCCCCCCCCC(=O)O[C@@H]1[C@@H](C)[C@@]2(O)[C@@H](C=C(CO)C[C@]3(O)C(=O)C(C)=C[C@@H]23)[C@@H]2C(C)(C)[C@]12OC(C)=O` [TPA, 12-O-tetradecanoylphorbol-13-acetate]: the “survival compared with MCF-10A and untreated MCF-7” value in assay [2] is recorded as “better survival rate”. Besides, the “average cell size, % of original size” value in assay [1] (400 V/cm, 192 ms, 100 nM for 18 hr, untreated MCF-7 148%) worked out at 170%. Also, the “average percentile cell size from normal distribution fit of histogram” value in assay [1] (400 V/cm, 192 ms, about 100 cells, untreated MCF-7 150%) was 170%. Also, the “increase in invasiveness and metastatic potential” value in assay [3] is 18 fold.
